Experimental data from US8795738B2, “Use of arsenic for cancer therapy protection” (Board of Regents of the University of Texas System, priority 2009, dated 2014).
“Also recorded” adds a separate entry of the source. Structures can show the parent of a compound that is named as a salt. Where two headings read alike, the source gives them in different places. *1 amine or outer side, *2 acyl side, *3 side chain or, on linkers, in order; H or OH if unused. Where a SMILES comes first, the peptide text is derived from it. Bridges are numbered along the chain shown (N, C = ends). Roman numbers before positions name the chains, in order. [ ]: non-standard residue; d: D form. Actinocin(9to1) = Cc1c2oc3c(C)ccc(C(=O)[*:1])c3nc-2c(C(=O)[*:2])c(N)c1=O; NMeV = CN[C@H](C(=O)O)C(C)C; Sar = CNCC(=O)O

Experiments:
[1] = mouse, in vivo
[2] = system: Human colon carcinoma cells, SW-480; assay type: in vivo, mice
[3] = mouse, in vivo; remark: listed apart in the source
[4] = system: Human lung carcinoma cells A549; assay type: in vivo, mice
[5] = system: Human breast carcinoma cells, MDA-MB-231; assay type: in vivo, mice
[6] = cited from earlier work; for absorption: oral / gastrointestinal absorption; for peak concentration in plasma: usual clinical doses
[7] = cited from earlier work
[8] = physiological pH; cited from earlier work
[9] = cited from earlier work; remark: listed apart in the source
[10] = cited from earlier work; remark: listed apart in the source
[11] = mouse, in vivo; remark: listed apart in the source
p53 [12] = assay type: cell-based
[13] = set-up: species or system mice; conditions: mouse, in vivo
[14] = system: human adult foreskin keratinocytes; conditions: cited from earlier work
[15] = mouse, in vivo; remark: listed apart in the source
[16] = system: peripheral blood lymphocytes; set-up: species or system mice; conditions: mouse, in vivo
p53 [17] = assay: C57BL/6 WT and p53 R172P knock-in mice, protection by arsenic (body weight); assay type: in vivo; conditions: p53 mutant (R172P knock-in) mice, in contrast with wild type littermates
Method: Mutant p53 expressing mouse model was employed to test whether the observed protective effect of arsenic was mediated by p53 inactivation. Black C57BL/6 WT or p53 R172P knock in mice at age of 4-6 weeks old) were obtained from Dr. Lazona. Mice were housed under pathogen-free conditions and maintained on a 12 h light/12 h dark cycle, with food and water supplied ad libitum., mice were randomized into following groups; control; X-ray irradiation only; arsenite and X-ray irradiation. For arsenite pretreatment, mice were fed with water containing sodium arsenite (as 1.0 mg/L) for 3 days. Mice were then irradiated with 2Gy TBI daily for one week. Body weight was monitored throughout the period of the experiment. The numbers are means±SE from two independent experiments with total of 10 mice per group.

MCF10A cells = assay type: cell-based, human
[18] = 5FU 30 mg/kg i.v. daily for one week

With O=c1[nH]cc(F)c(=O)[nH]1 [5FU, Fluorouracil] the “damage to small intestine and bone marrow cells” value [1] was “severe damages to small intestine and bone marrow cells”, the tumor volume [2, 18] was “marked tumor regression” and the bone marrow cellularity [3] was “Bone marrow cell exhaustion”. The “damage to the small intestine (crypt size and morphology)” value [3] was “severe damages to the small intestine”, the tumor volume ([4]; 5FU 30 mg/kg intravenous daily for one week) was “marked tumor regression” and the tumor volume [5, 18] was “marked tumor regression”.
For Cc1c2oc3c(C)ccc(C(=O)N[C@@H]4C(=O)N[C@H](C(C)C)C(=O)N5CCC[C@H]5C(=O)N(C)CC(=O)N(C)[C@@H](C(C)C)C(=O)O[C@@H]4C)c3nc-2c(C(=O)N[C@@H]2C(=O)N[C@H](C(C)C)C(=O)N3CCC[C@H]3C(=O)N(C)CC(=O)N(C)[C@@H](C(C)C)C(=O)O[C@@H]2C)c(N)c1=O [Actinomycin D] (I: T[dV]P[Sar][NMeV] / II: T[dV]P[Sar][NMeV]; ester I:1-I:C, II:1-II:C; linker I:N-II:N via Actinocin(9to1)), the “excreted into the urine” value ([6]; in vivo) is given as 10%, the half-life ([6]; in vivo) is given as “about 36 hr” and the “part of the dose excreted intact into the bile” value ([6]; in vivo) is given as “Half”. For the same compound, the “passage of the blood-brain barrier” value ([6]; in vivo) was “does not pass the blood-brain barrier”.
In the case of CS(=O)(=O)OCCCCOS(C)(=O)=O [Busulfan, 1,4-butanediol dimethanesulfonate], the “adults obtaining hematologic remission” value ([7]; previously untreated chronic myelogenous leukemia) is given as “Approximately 90%”.
For O=C(O)CCCc1ccc(N(CCCl)CCCl)cc1 [Chlorambucil, 4-(bis(2-chlorethyl)amino)benzenebutanoic acid], the absorption [6] is listed as “rapidly and completely absorbed”.
For N.N.[Cl][Pt][Cl] [Cisplatin], the absorption [6] is given as “not absorbed orally”.
In the case of COc1cccc2c1C(=O)c1c(O)c3c(c(O)c1C2=O)C[C@@](O)(C(C)=O)C[C@@H]3O[C@H]1C[C@H](N)[C@H](O)[C@H](C)O1 [Daunorubicin, 5,12-Naphthacenedione, (8S-cis)-8-acetyl-10-((3-amino-2,3,6-trideoxy-a-L-lyxo-hexanopyranosyl)oxy)-7,8,9,10-tetrahydro-6,8,11-trihydroxy-10-methoxy hydrochloride], the elimination half-life ([6]; in vivo) is listed as “about 19 hr”, the “secreted into the bile” value ([6]; in vivo) is listed as ~40% and the absorption [6] is listed as “poor”.
For COc1cccc2c1C(=O)c1c(O)c3c(c(O)c1C2=O)C[C@@](O)(C(=O)CO)C[C@@H]3O[C@H]1C[C@H](N)[C@H](O)[C@H](C)O1 [Doxorubicin, 5,12-Naphthacenedione, (8s-cis)-10-((3-amino-2,3,6-trideoxy-a-L-lyxo-hexopyranosyl)oxy)-7,8,9,10-tetrahydro-6,8,11-trihydroxy-8-(hydroxyacetyl)-1-methoxy-hydrochloride], the elimination half-life ([6]; in vivo) is given as “about 30 hr”, the “excreted into the urine” value ([6]; in vivo) is given as “a few” and the absorption [6] is given as “absorbed poorly”.
In the case of O=NN(CCCl)C(=O)NC1CCCCC1 [Lomustine, 1-(2-chloro-ethyl)-3-cyclohexyl-1nitrosourea], the tissue levels ([6]; in vivo, iv) is listed as “comparable to plasma levels”, the “part of radioactivity excreted as degradation products within 24 hours” value ([6]; in vivo, po) is listed as “about half” and the ionisation [8] is listed as “relatively unionized”.
In the case of N[C@@H](Cc1ccc(N(CCCl)CCCl)cc1)C(=O)O [Melphalan, 4-(bis(2-chloroethyl)amino)-L-phenylalanine], the “patients with a favorable response” value ([7]; multiple myeloma, oral administration) is given as “one third to one half”.
For CO[C@@]12[C@H](COC(N)=O)C3=C(C(=O)C(C)=C(N)C3=O)N1C[C@@H]1N[C@@H]12 [Mitomycin], the “time required to reduce the serum concentration by 50%” value ([9]; 30 mg bolus injection) is listed as 17 min and the “dose excreted unchanged in the urine” value ([9]; human, in vivo) is listed as “Approximately 10%”.
In the case of CC[C@]1(O)C[C@@H]2CN(CCc3c([nH]c4ccccc34)[C@@](C(=O)OC)(c3cc4c(cc3OC)N(C)[C@H]3[C@@](O)(C(=O)OC)[C@H](OC(C)=O)[C@]5(CC)C=CCN6CC[C@]43[C@@H]65)C2)C1 [Vinblastine], the “half-life of disappearance from plasma after distribution, first” value ([6]; after intravenous injection) is given as “approximately 1 hours”, the “half-life of disappearance from plasma after distribution, second” value ([6]; after intravenous injection) is given as ~20 h and the “excreted into the urine” value ([6]; in vivo) is given as “Approximately 15%”. The plasma protein binding ([6]; in vivo) was “bind to plasma proteins”, the “recovered in the feces after biliary excretion” value ([6]; in vivo) was “about 10%” and the absorption [6] was “Unpredictable absorption”. For the same compound, the “peak concentration in plasma” value [6] was “approximately 0.4 mM”.
For CC[C@]1(O)C[C@H]2CN(CCc3c([nH]c4ccccc34)[C@@](C(=O)OC)(c3cc4c(cc3OC)N(C=O)[C@H]3[C@@](O)(C(=O)OC)[C@H](OC(C)=O)[C@]5(CC)C=CCN6CC[C@]43[C@@H]65)C2)C1 [Vincristine], the plasma protein binding ([6]; in vivo) is given as “bind to plasma proteins”, the terminal half-life ([6]; multiphasic clearance from the plasma) is given as “about 24 hours” and the absorption [6] is given as “Unpredictable absorption”. The “peak concentration in plasma” value [6] was “approximately 0.4 mM”.
For COc1cccc2c1C(=O)c1c(O)c3c(c(O)c1C2=O)C[C@@](O)([C@H](C)O)C[C@@H]3O[C@H]1C[C@H](N)[C@H](O)[C@H](C)O1 [daunorubicinol], the half-life ([6]; in vivo) is listed as “about 27 hr”.
For Bleomycin, the “administered dose recovered in the urine as active bleomycin” value ([9]; human, in vivo) is given as 60% to 70%, the “plasma or serum terminal elimination half-life” value ([9]; patients with creatinine clearance <35 mL per minute, as creatinine clearance decreases) is given as “increases exponentially” and the “serum or plasma terminal elimination half-life” value ([9]; patients with creatinine clearance >35 mL per minute) is given as “approximately 115 minutes”. The tissue concentrations ([10]; hematopoietic tissue / bone marrow) was “low concentrations”, the tissue concentrations ([10]; skin, lungs, kidneys, peritoneum, lymphatics) was “high concentrations” and the time to improvement ([7]; Hodgkin's Disease and testicular tumors) was ≤ 2 weeks. For the same compound, the time to improvement ([7]; squamous cell cancers) was ≤ 3 weeks.
In the case of sodium arsenite [arsenic], the body weight [1] is reported as “little loss of body weight”, the “damage to small intestine and bone marrow cells after arsenic pretreatment” value [1] is reported as “significantly inhibited” and the “therapy-induced body weight loss after arsenic pretreatment” value [1] is reported as “effectively prevented”. For the same compound, the “p53-dependent tissue damages induced by 5FU” value [11] was “significantly blunted”, the “Hdm2 expression and p53 localisation” value (p53 [12]) was “upregulation of Hdm2 and accumulation of p53 in the cytoplasm” and the “p53 response to genotoxic stress” value (p53 [12]) was “impaired p53 activation and apoptosis”. For the same compound, the “duration of pretreatment adequate for optimal protection” value [13] was 3 days, the “protection (body weight)” value [13] was “a protection less than 3-day pretreatment; also recorded: no further increase of benefits” and the “effect of arsenic pretreatment on 5FU-induced tumor suppression” value (“effect … on 5FU-induced tumor suppression” for short) ([2]; mouse, in vivo) was “little effect”. The “growth of the implanted tumors” value ([2]; mouse, in vivo) was “did not have any detectable effect”, the “cell proliferation (with enhanced NF-κB and AP-1 activity)” value [14] was “induced proliferation” and the cell viability [14] was “statistically significant decrease of cell viability”. The “5FU-induced body weight loss after arsenic pretreatment” value [3] was “almost completely prevented”, the “5FU-induced decrease of bone marrow cellularity after arsenic pretreatment” value [3] was “considerably alleviated” and the “5FU-induced small intestine damage after arsenic pretreatment” value [3] was “significantly ameliorated”. For the same compound, the body weight [3] was “little loss of body weight”, the “effect … on 5FU-induced tumor suppression” value ([4]; mouse, in vivo) was “little effect” and the “effect of arsenic pretreatment on irradiation-induced tumor suppression” value ([4]; mouse, in vivo) was “little effect”. The “growth of the implant tumors” value ([4]; mouse, in vivo) was “did not have any detectable effect”, the “5FU-induced body weight loss after arsenic pretreatment” value [15] was “almost completely prevented” and the “day of complete return to untreated level of radiation-induced p53 accumulation and p21 expression” value [16] was 9 days. For the same compound, the “day of partial recovery of radiation-induced p53 accumulation and p21 expression” value [16] was 7 days, the “radiation-induced p53 accumulation and p21 expression” value [16] was “suppressed” and the “reversibility of p53 suppression” value [16] was “temporary and reversible”. The “effect … on 5FU-induced tumor suppression” value ([5]; mouse, in vivo) was “little effect”, the “protection against therapy-induced toxicity” value (p53 [17]) was “little protection” and the “reversibility of p53 inhibition” value (MCF10A cells) was “transient and can be completely reversed”. The “time after arsenic removal until radiation-induced p53 activation is almost completely recovered” value (MCF10A cells) was 7 days and the “time in arsenic-free media until radiation-induced p53 activation is detectable” value (MCF10A cells) was 5 days.
